Reference: patent publication US9526680B2, “Method for searching for malodor control agent, malodor control agent, and malodor control method” (Kao Corporation, priority 2010, dated 2016)

What was measured:
OR10A6 = target: T1, OR10A6 (Homo sapiens, UniProt Q8NH74); assay: Luciferase reporter gene assay, OR10A6 expressed in HEK293 cells; type: cell-based; details: response to hexanoic acid; test substance added together with hexanoic acid; HEK293
T1 construct: expressed in transfected cells; host or cells: HEK293
T1 sequence (Q8NH74 1-314): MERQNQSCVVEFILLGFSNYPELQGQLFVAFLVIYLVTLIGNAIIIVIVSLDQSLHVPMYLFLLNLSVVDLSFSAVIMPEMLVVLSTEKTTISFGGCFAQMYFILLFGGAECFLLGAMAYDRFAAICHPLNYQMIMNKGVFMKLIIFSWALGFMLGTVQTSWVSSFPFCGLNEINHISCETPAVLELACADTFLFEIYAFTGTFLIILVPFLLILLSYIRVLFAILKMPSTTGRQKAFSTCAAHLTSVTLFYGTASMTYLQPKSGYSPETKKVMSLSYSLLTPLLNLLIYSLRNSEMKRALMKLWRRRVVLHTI
Method: (§1) Cloning of human olfactory receptors was performed based on the sequence information registered in GenBank, through PCR with human genomic DNA female (G1521: Promega) as a template. Each of the genes amplified through PCR was inserted into a pENTR vector (Invitrogen) according to an instruction manual. Then, the gene-inserted vector was digested with NotI and AscI, and the obtained fragments were inserted into NotI and AscI sites located downstream of the Flag-Rho tag sequence in the pME18S vector.
(§2) Each of the 350 types of human olfactory receptors was expressed in HEK293 cells. A reaction solution having a composition shown in Table 2 was prepared on a clean bench, and left to stand for 15 minutes. The solution was dispensed to each well of a 96-well plate (BD). Subsequently, […] cells (100 μL, 3×10^5 cells/cm^2) were seeded in each well and cultured for 24 hours in an incubator at 37° C. and under 5% CO2 conditions.
(§3) The olfactory receptor expressed in HEK293 cell was conjugated with cell-intrinsic Gas to activate adenylate cyclase, and thereby the level of intracellular cAMP was increased. For the measurement of the response to odor in this study, the luciferase reporter gene assay was used, in which an increase in the amount of intracellular cAMP was monitored by using the emission value originating from firefly luciferase gene (fluc2P-CRE-hygro) as an indicator. Furthermore, a gene product obtained by fusing renilla luciferase gene in the downstream of CMV promoter (hRluc-CMV) was simultaneously introduced, and this was used as an internal standard for correcting an error in the transgenesis efficiency or the number of cells. The medium was removed from the culture prepared in the above-described section 3) by using a Pipetman, and 75 μl of a solution containing an odor substance (1 mM hexanoic acid or 300 μM nonanoic acid) prepared in CD293 medium (Invitrogen) was added thereto. The cells were cultured for 4 hours in a CO2 incubator, and the luciferase gene was sufficiently expressed in the cells. For the measurement of luciferase activity, the measurement was carried out by using a Dual-Glo™ luciferase assay system (Promega) according to the operation manual of the product. A value calculated by dividing the emission value, derived from a firefly luciferase induced by the stimulation with an odor substance, by the emission value in cells that were not-stimulated with an odor substance, was designated as a fold increase, and used as an index of response intensity.
(§4) OR2W1, OR10A6, OR51E1, OR51I2, and OR51L1 were respectively expressed in HEK293 cells by the same method as that used in Example 1, and a luciferase assay was carried out. In the luciferase assay, hexanoic acid was used as the odorous substance, and test substances were added together with hexanoic acid. The response of the olfactory receptors to hexanoic acid was measured, and a decrease in the receptor response to the addition of test substances was evaluated.
(§5) The inhibition ratios of the receptor response to test substances were calculated as follows. The emission value (Y) obtained from the cells in which the same receptors were introduced but no odor stimulation was conducted, was subtracted from the emission value derived from firefly luciferase (X) induced by odor stimulation with hexanoic acid alone. Similarly, the emission value (Y) obtained from the cells in which no odor stimulation was conducted, was subtracted from the emission value (Z) caused by stimulation with a mixture of hexanoic acid and a test substance. By the following calculation formula, the inhibitory activity of the test substance to receptor response was calculated based on the increment of the emission value (X−Y) caused by stimulation of hexanoic acid alone. Multiple independent experiments were performed in duplicate, and the average of each experiment was obtained. Inhibition ratio (%)={1−(Z−Y)/(X−Y)}×100

OR2W1 = target: T2, OR2W1 (Homo sapiens, UniProt Q9Y3N9); assay: Luciferase reporter gene assay, OR2W1 expressed in HEK293 cells; type: cell-based
T2 construct: expressed in transfected cells; host or cells: HEK293
T2 sequence (Q9Y3N9 1-320): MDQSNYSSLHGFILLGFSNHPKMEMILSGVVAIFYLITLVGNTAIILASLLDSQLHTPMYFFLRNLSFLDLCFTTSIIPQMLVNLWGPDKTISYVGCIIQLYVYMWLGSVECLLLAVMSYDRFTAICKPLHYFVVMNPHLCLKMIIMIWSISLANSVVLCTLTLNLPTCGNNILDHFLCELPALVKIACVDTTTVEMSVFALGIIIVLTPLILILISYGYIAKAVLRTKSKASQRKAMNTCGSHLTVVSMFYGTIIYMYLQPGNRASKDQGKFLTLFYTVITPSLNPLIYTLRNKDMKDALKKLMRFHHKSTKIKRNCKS
Method: as §1, §2, §3, §4
as §5, with “(%)={1−(Z−Y)/(X−Y)}×100 […]” for “(%)={1−(Z−Y)/(X−Y)}×100”

OR51E1 = target: T3, OR51E1 (Homo sapiens, UniProt Q8TCB6); assay: Luciferase reporter gene assay, OR51E1 expressed in HEK293 cells; type: cell-based
T3 construct: expressed in transfected cells; host or cells: HEK293
T3 sequence (Q8TCB6 1-318): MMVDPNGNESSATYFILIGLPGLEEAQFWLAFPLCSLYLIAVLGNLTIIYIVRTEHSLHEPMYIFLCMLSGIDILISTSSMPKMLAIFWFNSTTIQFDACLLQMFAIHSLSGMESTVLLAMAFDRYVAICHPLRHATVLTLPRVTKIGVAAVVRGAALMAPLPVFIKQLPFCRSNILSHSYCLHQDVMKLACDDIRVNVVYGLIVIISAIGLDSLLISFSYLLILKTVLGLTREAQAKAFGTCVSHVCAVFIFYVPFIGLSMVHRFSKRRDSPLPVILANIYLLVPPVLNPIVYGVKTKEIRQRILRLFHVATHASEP
Method: as §1, §2, §3, §4
as §5, with “(%)={1−(Z−Y)/(X−Y)}×100 […]” for “(%)={1−(Z−Y)/(X−Y)}×100”

OR51L1 = target: T4, OR51L1 (Homo sapiens, UniProt Q8NGJ5); assay: Luciferase reporter gene assay, OR51L1 expressed in HEK293 cells; type: cell-based
T4 construct: expressed in transfected cells; host or cells: HEK293
T4 sequence (Q8NGJ5 1-315): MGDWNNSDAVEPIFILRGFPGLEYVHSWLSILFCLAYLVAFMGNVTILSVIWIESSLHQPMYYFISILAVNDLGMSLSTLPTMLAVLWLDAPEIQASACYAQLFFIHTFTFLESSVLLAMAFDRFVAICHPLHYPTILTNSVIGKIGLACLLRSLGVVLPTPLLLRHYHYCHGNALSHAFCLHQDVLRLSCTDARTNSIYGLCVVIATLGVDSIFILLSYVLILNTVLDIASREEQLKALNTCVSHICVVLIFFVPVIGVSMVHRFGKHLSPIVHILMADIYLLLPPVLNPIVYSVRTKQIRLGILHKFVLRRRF
Method: as §1, §2, §3, §4
as §5, with “(%)={1−(Z−Y)/(X−Y)}×100 […]” for “(%)={1−(Z−Y)/(X−Y)}×100”

OR51I2 = target: T5, OR51I2 (Homo sapiens, UniProt Q9H344); assay: Luciferase reporter gene assay, OR51I2 expressed in HEK293 cells; type: cell-based
T5 construct: expressed in transfected cells; host or cells: HEK293
T5 sequence (Q9H344 1-312): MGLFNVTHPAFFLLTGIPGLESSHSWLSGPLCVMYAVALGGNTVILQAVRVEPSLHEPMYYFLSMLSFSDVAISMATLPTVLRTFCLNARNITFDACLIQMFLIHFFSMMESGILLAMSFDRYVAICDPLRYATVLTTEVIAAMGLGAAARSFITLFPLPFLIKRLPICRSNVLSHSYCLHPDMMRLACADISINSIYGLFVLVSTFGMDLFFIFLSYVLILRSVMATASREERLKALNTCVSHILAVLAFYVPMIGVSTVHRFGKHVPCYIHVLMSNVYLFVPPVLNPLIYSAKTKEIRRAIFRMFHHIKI
Method: as §1, §2, §3, §4
as §5, with “(%)={1−(Z−Y)/(X−Y)}×100 […]” for “(%)={1−(Z−Y)/(X−Y)}×100”

[1] = Sensory evaluation test of hexanoic acid odor inhibition; type: in vivo; details: for Intensity of odor: hexanoic acid odor, malodor alone rated as 5, 0 to 10 points, test substance diluted 100 times with propylene glycol, three panelists; for Inhibition of hexanoic acid odor (in words): sensory test, test substance diluted 100 times with propylene glycol (FIG. 5, Table 4)
Method: Cotton balls were introduced into a glass bottle (Hakuyo Glass Co., Ltd. No. 11, capacity 110 ml), and hexanoic acid diluted 100 times with propylene glycol, nonanoic acid diluted 10 times with propylene glycol, or isovaleric acid diluted 1000 times with propylene glycol, as a malodor, and a test substance were added dropwise in an amount of […] to the cotton balls. The glass bottle was left to stand overnight at room temperature, and the odor molecules were sufficiently volatilized in the glass bottle. A sensory evaluation test was carried out by a panel of three panelists (5 panelists for isovaleric acid), and while the intensity of odor in the case of adding dropwise the malodor alone was rated as 5, the intensity of the malodor in the case of incorporating a test substance was evaluated on the basis of a system of 20 grades from 0 point to 10 points (0.5 points per grade).
Regarding the test substance, florhydral (Givaudan SA), bourgeonal (Givaudan SA), hydroxycitronellal (Givaudan SA, International Flavors & Fragrances, Inc., and the like), 4-isopropylcyclohexanecarbaldehyde (synthesized according to a method described in JP-A-2-188549), 4-(2-methoxyphenyl)-2-methyl-2-butanol (JP-A-9-111281), florosa (Givaudan SA), isocyclocitral (Givaudan SA, International Flavors & Fragrances, Inc., and the like), tripral (International Flavors & Fragrances, Inc.), and Pollenal II (Kao Corp.), which had been diluted 100 times with propylene glycol, were used for hexanoic acid; florhydral that had been diluted 10 times with propylene glycol was used for nonanoic acid; and florhydral that had been diluted 1000 times with propylene glycol was used for isovaleric acid.

[2] = 1 mM hexanoic acid, test substance 3, 10, 30, 100, 300 μM (FIG. 4)
[3] = response to hexanoic acid, test substance added together with hexanoic acid, HEK293

| SMILES | Inhibition ratio of OR10A6 response (OR10A6) | Inhibition of OR2W1 response to hexanoic acid (in words) (OR2W1; [2]) | Inhibition ratio of OR2W1 response (OR2W1; [3]) | Inhibition of OR51E1 response to hexanoic acid (in words) (OR51E1; [2]) | Inhibition ratio of OR51E1 response (OR51E1; [3]) | Inhibition of OR51L1 response to hexanoic acid (in words) (OR51L1; [2]) | Inhibition ratio of OR51L1 response (OR51L1; [3]) | Inhibition of OR51I2 response to hexanoic acid (in words) (OR51I2; [2]) | Inhibition ratio of OR51I2 response (OR51I2; [3]) | Intensity of odor [1] | Inhibition of hexanoic acid odor (in words) [1] |
| --- | --- | --- | --- | --- | --- | --- | --- | --- | --- | --- | --- |
| CC(C)C1CCC(C)(C=O)CC1 (centres unmarked) [4-isopropyl-1-methylcyclohexanecarbaldehyde] | 1 (Inhibition ratio: 50% or higher) |  |  |  |  |  |  |  |  |  |  |
| CC(C)(C)c1ccc(CCC=O)cc1 [Bourgeonal, 3-(4-tert-butylphenyl)propanal] |  | in a concentration-dependent manner | 1 (Inhibition ratio: 50% or higher) | in a concentration-dependent manner | 1 (Inhibition ratio: 50% or higher) | in a concentration-dependent manner | 1 (Inhibition ratio: 50% or higher) | in a concentration-dependent manner | 1 (Inhibition ratio: 50% or higher) | 3.13 | markedly inhibited |
| CC(C)CC1CC(C)(O)CCO1 (centres unmarked) [Florosa, tetrahydro-4-methyl-2-(2-methylpropyl)-2H-pyran-4-ol] | 2 (Inhibition ratio: 20% to 50%) |  |  |  |  |  |  |  |  | 3.38 | inhibit the hexanoic acid odor |
